Assay results as given in US20090214580A1, “Peptide mixtures with immunomodulatory activity” (priority 2004, published 2009).

How the values were obtained:
EAE = conditions: Lewis rats; cited from earlier work
[1] = system: PBMC from healthy donors and MS patients; test: T cell proliferation of PBMC, primary and secondary (3H-thymidine); type: cell-based, human; conditions: 20 μg/ml; healthy donor and MS patient PBMC; words
Procedure: FIG. 1: Peptide length and composition affect the stimulatory potential of complex mixtures (CM). The stimulatory capacity of CM ranging in size and composition were tested in PBMC from nine healthy donors in both primary (A,C) and secondary (B,D) proliferations to confirm the specificity of the response. 20 μg/ml of CM or GA were each added to 18 wells and the % of positive wells (those wells with CPM having an SI greater than twice that observed in background/control wells) determined from pooled data from all donors. Figures A and B analyze the contribution of peptide length and Figures C and D the composition or MHC-bias to stimulatory potential. […]
PBMC were isolated from leukocytaphereses and seeded in complete T cell medium (TCM; Iscove's modified Dulbecco's medium [IMDM] containing 2 mM 1-glutamine, 50 μg/ml gentamycin, penicillin-streptomycin 100 U/ml each, and 5% pooled human AB serum) at 2×10^5 cells/well into 96 well U-bottom microtiter plates (Nunc, Naperville, Ill.) and stimulated with CM and GA at 20 μg/ml. After 6 days, 100 μl samples of cell suspension were removed from these plates and transferred to a new microtiter plate to which 1 μCi/well of H^3-thymdidine (Amersham Pharmacia Biotech, Piscataway, N.J.) was added and after 16 hours harvested and counted in a scintillation counter (Microbeta, Wallac, Gatihersburg, Md.). […]

[2] = system: spleen cells from immunized SJL mice; test: Spleen cells of CM- or GA-immunized SJL mice, response to immunizing antigen; type: cell-based, mouse; conditions: spleen cells ten days after immunization; words
Source text: (§1) FIG. 4. Cross reactivity of CM-specific lines to MBP. SJL mice were immunized with CM or GA to enhance the number of CM-specific T cells to assess for cross-reactivity to MBP. Spleen cells were removed from mice ten days post immunization and set into culture (6 wells per condition) with the initial immunizing antigen or human MBP at the μg/ml concentrations shown on the X axes. *p<0.05 by Student's t test comparing proliferation in test wells to control wells without antigen.
(§2) 6-8 week old female SJL/J mice were purchased from Charles River Laboratories (Wilmington, Mass.). Spleen cells were isolated from anesthetized naïve SJL mice or 10 days after immunization with 200 μg of CM or GA in Complete Freund's Adjuvant (CFA—Difco Laboratories, Detroit, Mich.) on four spots on their back and subsequent aseptic spleen removal and red blood cell lysis using ACK lysis buffer from Biosource (Camarillo, Calif.). […] After six or three days in naïve or immunized mouse experiments respectively, 1 μCi ^3[H]-thymidine (Dupont, Wilmington, Del.) was added overnight and subsequently harvested and counted for thymidine incorporation on a Trilux liquid scintillation counter (Wallac, Gaithersburg, Md.).

SJL mouse spleen cells = test: SJL mouse spleen primary proliferative responses to CM; type: cell-based; conditions: naive SJL spleen cells; 40, 10, 2.5 μg/ml; words
Procedure: FIG. 3: SJL mouse spleen primary proliferative responses to CM. Mouse splenic cells were seeded with 3 different doses of CM (40, 10 and 2.5 μg/ml) or GA to test for stimulatory potential of CM of (A) varying length or (B) differential anchor bias. 18 wells were seeded per antigen, and data from 2 experiments were pooled. % positive wells represents the proportion of wells with CPM at a SI greater than 2 compared to background/control wells.
as §2

whole human MBP = test: Spleen cells of CM- or GA-immunized SJL mice, cross reactivity to human MBP; type: cell-based, mouse; conditions: spleen cells ten days after immunization; words
Source text: as §1, §2

multiple sclerosis = conditions: MS patients; cited from earlier work
PLP139-151-induced EAE = test: Prophylaxis in PLP139-151-induced EAE; type: in vivo, SJL mice
HLA-DR2 = HLA-DR2 (Homo sapiens, UniProt P01903+P01911); conditions: cited from earlier work

Substance: EYYKEYYKEYYK
- effect on EAE (EAE): ameliorate EAE

Substance: Glatiramer acetate [GA]
- stimulatory potential (proliferative responses, % positive wells) [1]: most frequently observed
- response to immunizing antigen (SI) [2]: very high SIs
- stimulatory potential (primary proliferative responses) (SJL mouse spleen cells): most frequently observed
- cross reactivity with whole human MBP (whole human MBP): cross reacted
- reduction of the relapse rate in MS (multiple sclerosis): about 30%
- Cumulative disease score (day 0-24) (PLP139-151-induced EAE; 500 μg co-injected s.c. with 75 μg PLP 139-151, initial disease course, mean ± SEM): 10.2 ± 1.6
- Cumulative disease score (day 24-45) (PLP139-151-induced EAE; 500 μg co-injected s.c. with 75 μg PLP 139-151, remaining disease course, mean ± SEM): 13.5 ± 3.0
- prophylactic effect on the EAE disease course (PLP139-151-induced EAE; single 500 μg dose with PLP 139-151): significantly reduce the overall disease score
- reduction of cumulative disease score throughout the relapse phase (PLP139-151-induced EAE; single 500 μg dose with PLP 139-151, vs PLP alone): approximately one-third
- competition for binding of MBP (85-99) to HLA-DR2 (HLA-DR2): effectively compete

Substance: poly-YEAK
- binding to DR2 molecules (HLA-DR2; compared with poly-YEA, -YEK and -YAK): better binders
